What was measured:
Assay type in all cases: cell-based
[1] = test system: Escherichia coli NCTC 8196 (= EC); test: MIC determination in microtiter plates, Escherichia coli; conditions: Tables 2a/2b, 48 hours at 37° C., ≦20% growth, optical density 620 nm, some approximate values
Method: (§1) Determination of the Minimum Inhibitory Concentration (MIC Value) in Microtiter Plates
(§2) Casein/soybean flour peptone bouillon for the preparation of pre-cultures of the test bacteria and yeast.
(§3) Mycological slant agar for the pre-culture of moulds
(§4) The test substances are pre-dissolved in dimethyl sulfoxide (DMSO) and tested in a dilution series of 1:2.
(§5) Bacteria and yeast are cultured overnight in CASO bouillon, the mould is cultured overnight on mycological slant agar, and washed off with 10 ml of 0.85% sodium chloride solution (+0.1% TritonX-100).
(§6) All the test organisms are adjusted to an organism count of 1−5×10^6 CFU/ml using 0.85% sodium chloride solution.
(§7) The test substances are pre-pipetted into microtiter plates in an amount of 8 μl per well.
(§8) Pre-diluted organism suspensions are diluted 1:100 in CASO bouillon (bacteria and yeast) or Sabouraud 2% glucose bouillon (mould) and are added in an amount of 192 μl per well to the test substances.
(§9) The test batches are incubated for 48 hours at 37° C. (bacteria and yeast) or for 5 days at 28° C. (mould).
(§10) After incubation, the growth is evaluated by reference to the turbidity of the test batches (optical density) at 620 nm in a microplate reader.
(§11) One microtiter plate is used for each test organism and substance concentration. All the substances are tested in duplicate.

[2] = test system: Pseudomonas aeruginosa CIP A-22 (= PA); test: MIC determination in microtiter plates, Pseudomonas aeruginosa; conditions: Tables 2a/2b, 48 hours at 37° C., ≦20% growth, optical density 620 nm, some approximate values
Method: as §1, §2, §3, §4, §5, §6, §7, §8, §9, §10, §11

[3] = test system: Aspergillus niger ATCC 6275 (= AN); test: MIC determination in microtiter plates, Aspergillus niger; conditions: Tables 2a/2b, 5 days at 28° C., ≦20% growth, optical density 620 nm, some approximate values
Method: as §1, §2, §3, §4, §5, §6, §7, §8, §9, §10, §11

[4] = test system: Staphylococcus hominis DMS 20328 (= SH); test: MIC determination in microtiter plates, Staphylococcus hominis; conditions: Tables 2a/2b, 48 hours at 37° C., ≦20% growth, optical density 620 nm, tested at 120, 60, 30, 15, 7.5 and 3.5 ppm, some approximate
Method: as §1, §2, §3, §4, §5, §6, §7, §8, §9, §10, §11

[5] = test system: Candida albicans ATCC 10231 (= CA); test: MIC determination in microtiter plates, Candida albicans; conditions: Tables 2a/2b, 48 hours at 37° C., ≦20% growth, optical density 620 nm, some approximate values
Method: as §1, §2, §3, §4, §5, §6, §7, §8, §9, §10, §11

SMILES	MIC [ppm] EC [1] [ppm]	MIC [ppm] PA [2] [ppm]	MIC [ppm] AN [3] [ppm]	MIC [ppm] SH [4] [ppm]	MIC [ppm] CA [5] [ppm]
Cc1ccc(C(=O)COc2cc(CCN)cc(OCC(=O)c3ccc(C)cc3)c2OCC(=O)c2ccc(C)cc2)cc1 [Compound 98]	30	>120	>120	30	>120
CCOC(=O)CCCCOc1cc(CCN)cc(OCCCCC(=O)OCC)c1OCCCCC(=O)OCC [Compound 79]	>120	>120	120	>120	>120
CC(C)(C)c1ccc(COc2cc(CCN)cc(OCc3ccc(C(C)(C)C)cc3)c2OCc2ccc(C(C)(C)C)cc2)cc1 [Compound 69]	>120	>120	>120	>120	>120
COC(=O)COc1cc(CCN)cc(OCC(=O)OC)c1OCC(=O)OC [Compound 72]	>120	>120	>120	>120	>120
NCCc1ccc(OCc2cccc(C(F)(F)F)c2)c(OCc2cccc(C(F)(F)F)c2)c1 [Compound 9]	3.75	>120	>120	3.75	7.5
NCCc1ccc(OCC(=O)OCc2ccccc2)c(OCC(=O)OCc2ccccc2)c1 [Compound 26]	>120	>120	>120	>120	>120
NCCc1ccc(OCc2ccc3ccccc3c2)c(OCc2ccc3ccccc3c2)c1 [Compound 20]	>120	>120	>120	3.75	>120
NCCc1ccc(OCc2ccccc2C(F)(F)F)c(OCc2ccccc2C(F)(F)F)c1 [Compound 8]	7.5	>120	>120	7.5	15
NCCc1cc(OCC(=O)c2ccc(F)cc2)c(OCC(=O)c2ccc(F)cc2)c(OCC(=O)c2ccc(F)cc2)c1 [Compound 99]	60	>120	>120	60	>120
CCC(C)Oc1cc(CCN)cc(OC(C)CC)c1OC(C)CC (stereo not shown) [Compound 83]	30	>120	>120	>120	120
C=CCCOc1cc(CCN)cc(OCCC=C)c1OCCC=C [Compound 94]	60	>120	>120	60	120
CCCOc1cc(CCN)cc(OCCC)c1OCCC [Compound 80]	120	>120	120	120	>120
NCCc1ccc(OC2CCCC2)c(OC2CCCC2)c1 [Compound 41]	120	>120	>120	120	120
NCCc1ccc(OCc2cccc(F)c2)c(OCc2cccc(F)c2)c1 [Compound 16]	7.5	120	>120	7.5	7.5
CCOC(=O)CCCOc1cc(CCN)cc(OCCCC(=O)OCC)c1OCCCC(=O)OCC [Compound 78]	>120	>120	>120	>120	>120
NCCc1ccc(OCc2ccc(F)cc2)c(OCc2ccc(F)cc2)c1 [Compound 17]	24	>120	>120	12	60
C=CCCCOc1ccc(CCN)cc1OCCCC=C [Compound 44]	60	>120	>120	60	60

SMILES	MIC [ppm] EC [1] [ppm]	MIC [ppm] PA [2] [ppm]	MIC [ppm] AN [3] [ppm]	MIC [ppm] SH [4] [ppm]	MIC [ppm] CA [5] [ppm]
CC(C)(C)c1ccc(COc2ccc(CCN)cc2OCc2ccc(C(C)(C)C)cc2)cc1 [Compound 18]	>60	>120	>120	1.9	60
CCCOC(=O)COc1cc(CCN)cc(OCC(=O)OCCC)c1OCC(=O)OCCC [Compound 74]	>120	>120	>120	>120	>120
NCCc1cc(OCc2ccccc2)c(OCc2ccccc2)c(OCc2ccccc2)c1 [Compound 70]	7.5	>120	>120	7.5	15
NCCc1cc(OCc2ccccc2F)c(OCc2ccccc2F)c(OCc2ccccc2F)c1 [Compound 66]	15	>120	>120	15	120
NCCc1ccc(OCc2ccccc2)c(OCc2ccccc2)c1 [Compound 19]	28	>120	>120	28	60
N#Cc1cccc(COc2ccc(CCN)cc2OCc2cccc(C#N)c2)c1 [Compound 12]	120	>120	30	60	>120
CC(C)OC(=O)COc1ccc(CCN)cc1OCC(=O)OC(C)C [Compound 24]	>120	>120	15	>120	>120
CCCCCCCCCCOc1ccc(CCN)cc1OCCCCCCCCCC [Compound 40]	>120	>120	>120	>120	>120
CCCOC(=O)COc1ccc(CCN)cc1OCC(=O)OCCC [Compound 23]	>120	>120	15	>120	>120
C=CCOc1ccc(CCN)cc1OCC=C [Compound 42]	>120	>120	>120	>120	>120
CCC(CC)Oc1ccc(CCN)cc1OC(CC)CC [Compound 35]	60	>120	>120	60	60
COC(=O)COc1ccc(CCN)cc1OCC(=O)OC [Compound 21]	>120	>120	120	>120	>120
Cc1ccc(COc2ccc(CCN)cc2OCc2ccc(C)cc2)cc1 [Compound 7]	7.5	120	>120	3.75	3.75
NCCc1cc(OCC(=O)OCc2ccccc2)c(OCC(=O)OCc2ccccc2)c(OCC(=O)OCc2ccccc2)c1 [Compound 77]	>120	>120	>120	120	>120
CC(C)OC(=O)COc1cc(CCN)cc(OCC(=O)OC(C)C)c1OCC(=O)OC(C)C [Compound 75]	>120	>120	>120	60	>120
CCOC(=O)CCCOc1ccc(CCN)cc1OCCCC(=O)OCC [Compound 27]	>120	>120	>120	>120	>120
CC(C)(C)OC(=O)COc1cc(CCN)cc(OCC(=O)OC(C)(C)C)c1OCC(=O)OC(C)(C)C [Compound 76]	>120	>120	>120		>120
